Measured values taken from ChEMBL document CHEMBL1201862, “PubChem BioAssay data set” (2004).
Activity calls are given as the source filed them.

Tests used:
[1] = molecular target: Scavenger receptor class B member 1 (Mus musculus, UniProt Q61009); assay: mouse SR-BI DiI-HDL uptake blockers – ldlA[mSR-BI] cells, fluorescence, cherry pick, dose response (AID 493194); type: functional, cell-based;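 note: cellular uptake of fluorescent DiI-labeled HDL measured as cell fluorescence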
Tumor necrosis factor = Tumor necrosis factor (Homo sapiens, UniProt P01375); assay: analog potency on TNFa NF-kB signaling – cell-based, revised, SAR follow-up (AID 2337); type: functional
[2] = molecular target: Nucleotide-binding oligomerization domain-containing protein 2 (Homo sapiens, UniProt Q9HC29); assay: PubChem AID 2334; type: functional
HEK293 = assay: cells; details: Homo sapiens;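 note: cells exposed to compound for 14 hours overnight before viability readout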
[3] = molecular target: T1, Nucleotide-binding oligomerization domain-containing protein 1 (Homo sapiens, UniProt Q9Y239); assay: blockers of NOD1 pathway activity – revised, SAR follow-up (AID 2333); type: functional
T1 sequence (Q9Y239 whole entry): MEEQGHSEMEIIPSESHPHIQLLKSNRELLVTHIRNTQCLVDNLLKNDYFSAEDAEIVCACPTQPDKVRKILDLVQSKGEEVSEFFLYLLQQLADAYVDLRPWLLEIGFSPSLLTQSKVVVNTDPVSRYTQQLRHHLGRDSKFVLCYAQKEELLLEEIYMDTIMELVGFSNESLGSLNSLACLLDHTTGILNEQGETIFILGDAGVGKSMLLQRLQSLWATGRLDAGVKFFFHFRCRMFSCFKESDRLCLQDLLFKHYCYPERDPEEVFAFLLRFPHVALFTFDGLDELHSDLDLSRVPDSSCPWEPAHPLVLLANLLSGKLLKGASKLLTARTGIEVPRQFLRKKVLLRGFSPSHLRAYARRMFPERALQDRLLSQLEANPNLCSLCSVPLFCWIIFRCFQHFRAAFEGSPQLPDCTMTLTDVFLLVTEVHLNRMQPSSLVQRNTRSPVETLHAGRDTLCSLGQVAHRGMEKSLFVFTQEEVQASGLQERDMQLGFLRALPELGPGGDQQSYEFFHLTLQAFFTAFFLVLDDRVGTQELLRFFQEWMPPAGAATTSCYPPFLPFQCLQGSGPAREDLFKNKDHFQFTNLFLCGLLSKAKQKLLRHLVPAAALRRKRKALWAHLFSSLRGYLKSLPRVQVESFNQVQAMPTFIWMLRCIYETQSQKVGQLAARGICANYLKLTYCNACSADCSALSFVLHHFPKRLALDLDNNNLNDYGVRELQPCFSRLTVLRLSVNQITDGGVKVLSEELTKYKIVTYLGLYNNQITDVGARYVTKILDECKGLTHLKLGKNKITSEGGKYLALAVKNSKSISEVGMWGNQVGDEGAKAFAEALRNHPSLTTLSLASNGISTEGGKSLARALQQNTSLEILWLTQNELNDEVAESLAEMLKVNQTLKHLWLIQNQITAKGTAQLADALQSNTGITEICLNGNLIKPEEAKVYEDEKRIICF

[4] = molecular target: Induced myeloid leukemia cell differentiation protein Mcl-1 (Homo sapiens, UniProt Q07820); type: functional
Caspase-8 = Caspase-8 (Homo sapiens, UniProt Q14790); assay: inhibitors of purified CASP8 protease – biochemical, Z-IETD-R110 fluorescence, cherry-picked samples, selectivity assay for caspase-6 inhibitor project, dose response (AID 743294)
Caspase-6 = Caspase-6 (Homo sapiens, UniProt P55212); assay: inhibition of CASP6 peptide cleavage – biochemical, VEID-R110 fluorescence, cherry-pick, dose response (AID 720632)
[5] = molecular target: Intestinal-type alkaline phosphatase (Homo sapiens, UniProt P09923); assay: Dose Response confirmation of uHTS hits from a small molecule inhibitors of human intestinal alkaline phosphatase via a luminescent assay. [Related pubchem assays (depositor defined):AID2544, AID2574]; type: functional
Albumin = Albumin (Bos taurus, UniProt P02769); assay: Counterscreen for inhibitors of T-cell receptor (TCR)-CD3 interaction: Fluorescence-based biochemical high throughput dose response assay to identify inhibitors of T-cell receptor (TCR)-CD3 interaction using a TAMRA-labeled BSA probe.; type: functional
Caspase-3 = molecular target: T2, Caspase-3 (Homo sapiens, UniProt P42574); assay: human caspase-3 protease activity blockade – biochemical, fluorescence, cherry-picked samples, selectivity assay for caspase-6 allosteric inhibitor project, dose response (AID 743291)
T2 sequence (P42574 whole entry): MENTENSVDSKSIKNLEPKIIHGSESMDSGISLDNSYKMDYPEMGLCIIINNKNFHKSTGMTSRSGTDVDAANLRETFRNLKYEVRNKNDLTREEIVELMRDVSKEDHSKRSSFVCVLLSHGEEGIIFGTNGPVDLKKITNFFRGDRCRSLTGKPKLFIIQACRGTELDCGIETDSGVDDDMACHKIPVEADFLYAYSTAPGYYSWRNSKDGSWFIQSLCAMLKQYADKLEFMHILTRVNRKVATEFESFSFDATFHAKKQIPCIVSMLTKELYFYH

Caspase-7 = Caspase-7 (Homo sapiens, UniProt P55210); assay: caspase-7 enzyme inhibition, selectivity check – biochemical, DEVD-R110 fluorescence, cherry-pick, selectivity assay for caspase-6 inhibitor project, dose response (AID 743295); type: functional
Large T antigen = Large T antigen (Simian virus 40, UniProt P03070); type: functional, Betapolyomavirus macacae;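 note: Confirmatory-stage PubChem screen for compounds that inhibit SV40 T antigen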
[6] = HEK-293T viability loss after treatment – luminescence, T-cell screen hits, cytotoxicity control for TCR NF-kB inhibitor project, dose response (AID 489026); type: functional, cell-based;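 note: cells exposed to compound about 14 hours before the viability readout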
J774.A1 = assay: Confirmation of image-based Screening Assay for Inhibitors of Phagocytosis. [Related pubchem assays (depositor defined):AID1029, AID1643]; type: functional, cell-based; details: Mus musculus
[7] = molecular target: Dual specificity protein phosphatase 3 (Homo sapiens, UniProt P51452); assay: Dose Response Confirmation of compounds that inhibit VHR1 in Fluorescent Assay. [Related pubchem assays (depositor defined):AID1661, AID1878]; type: functional
[8] = molecular target: Tyrosine-protein phosphatase non-receptor type 7 (Homo sapiens, UniProt P35236); assay: Dose Response confirmation of compounds that inhibit HePTP. [Related pubchem assays (depositor defined):AID1059, AID1661, AID2085]; type: functional
[9] = microbe, parasite or virus in culture; type: functional; details: Mycobacterium tuberculosis
Aminopeptidase N = molecular target: T3, Aminopeptidase N (Plasmodium falciparum FcB1/Columbia, UniProt O96935); assay: malaria alanyl aminopeptidase activity blockers – biochemical, fluorogenic H-Leu-NHMec substrate, 1536-well (AID 1445); design: species or system Plasmodium falciparum 3D7, 3D7
T3 sequence (O96935 whole entry): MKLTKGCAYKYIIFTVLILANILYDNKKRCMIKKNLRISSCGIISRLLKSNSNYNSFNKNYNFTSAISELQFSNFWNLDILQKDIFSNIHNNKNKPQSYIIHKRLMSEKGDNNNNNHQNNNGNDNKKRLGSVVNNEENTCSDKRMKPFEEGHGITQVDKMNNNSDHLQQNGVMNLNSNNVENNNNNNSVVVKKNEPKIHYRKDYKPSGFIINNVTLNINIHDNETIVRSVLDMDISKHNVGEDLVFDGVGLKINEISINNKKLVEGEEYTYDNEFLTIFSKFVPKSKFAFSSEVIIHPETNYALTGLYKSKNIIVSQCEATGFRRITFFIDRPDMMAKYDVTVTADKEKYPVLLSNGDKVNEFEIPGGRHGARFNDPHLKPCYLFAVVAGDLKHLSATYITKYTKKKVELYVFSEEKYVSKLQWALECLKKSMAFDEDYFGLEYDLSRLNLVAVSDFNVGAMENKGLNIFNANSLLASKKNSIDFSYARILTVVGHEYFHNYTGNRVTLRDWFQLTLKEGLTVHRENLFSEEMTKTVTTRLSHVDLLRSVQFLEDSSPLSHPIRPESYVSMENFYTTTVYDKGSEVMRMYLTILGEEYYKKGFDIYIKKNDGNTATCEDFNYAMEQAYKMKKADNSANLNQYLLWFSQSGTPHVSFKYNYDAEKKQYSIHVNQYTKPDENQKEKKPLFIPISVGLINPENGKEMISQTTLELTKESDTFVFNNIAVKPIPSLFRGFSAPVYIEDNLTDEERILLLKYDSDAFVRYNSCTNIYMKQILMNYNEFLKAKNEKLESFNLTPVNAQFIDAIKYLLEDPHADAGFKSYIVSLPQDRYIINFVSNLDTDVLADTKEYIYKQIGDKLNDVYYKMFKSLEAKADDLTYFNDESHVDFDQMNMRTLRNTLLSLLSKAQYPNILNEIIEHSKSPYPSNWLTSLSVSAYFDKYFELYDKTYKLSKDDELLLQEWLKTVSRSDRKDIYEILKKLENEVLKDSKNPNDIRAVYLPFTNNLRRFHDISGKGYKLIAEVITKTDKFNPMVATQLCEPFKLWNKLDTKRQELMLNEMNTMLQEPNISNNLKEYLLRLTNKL

Leucine aminopeptidase = molecular target: T4, Leucine aminopeptidase (Plasmodium falciparum 3D7, UniProt Q8IL11); assay: P. falciparum M17LAP inhibitors, primary screen, biochemical, fluorogenic H-Leu-NHMec substrate, 1536-well (AID 1619); type: functional
T4 sequence (Q8IL11 whole entry): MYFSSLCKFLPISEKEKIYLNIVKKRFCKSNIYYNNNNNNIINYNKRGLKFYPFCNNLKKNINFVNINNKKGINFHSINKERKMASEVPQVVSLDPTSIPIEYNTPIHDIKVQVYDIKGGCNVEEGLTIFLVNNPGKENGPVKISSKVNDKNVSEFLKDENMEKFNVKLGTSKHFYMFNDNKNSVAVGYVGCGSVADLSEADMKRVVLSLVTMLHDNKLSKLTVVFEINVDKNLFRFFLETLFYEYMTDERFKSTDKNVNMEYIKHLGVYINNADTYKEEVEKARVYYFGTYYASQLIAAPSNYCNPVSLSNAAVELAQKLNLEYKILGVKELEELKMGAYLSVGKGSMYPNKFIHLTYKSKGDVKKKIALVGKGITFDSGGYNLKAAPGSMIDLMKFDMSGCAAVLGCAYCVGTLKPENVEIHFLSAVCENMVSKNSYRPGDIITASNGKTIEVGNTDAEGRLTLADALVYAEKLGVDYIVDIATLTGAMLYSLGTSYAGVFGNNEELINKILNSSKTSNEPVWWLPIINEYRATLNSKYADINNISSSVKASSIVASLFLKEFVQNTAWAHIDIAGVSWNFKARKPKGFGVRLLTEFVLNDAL

[10] = molecular target: Cystic fibrosis transmembrane conductance regulator/Golgi-associated PDZ and coiled-coil motif-containing protein (Homo sapiens, UniProt P13569+Q9HD26); assay: potency against CAL PDZ-peptide interaction – biochemical, fluorescence polarization, Cerulean-tagged CAL PDZ, cherry-picks, dose response (AID 504773)
ORF 73 = ORF 73 (Human herpesvirus 8, UniProt O40947); assay: KSHV LANA DNA-binding disruption – biochemical, fluorescence polarization, cherry-picked samples, dose response (AID 504725); design: species or system Human gammaherpesvirus 8;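 note: fluorescence polarization of a labeled DNA duplex reporting LANA DNA binding; potency is for inhibitors that block LANA binding to the DNA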
[11] = rescue of ΔF508 CFTR function, airway epithelium – human bronchial epithelial cells, plate reader, cherry-pick, two tests, dose response (AID 743267); type: functional, cell-based
Salmon testes DNA = assay: acridine orange-DNA binding displacement – biochemical, fluorescence polarization, cherry-picked samples, set 2, artefact control for KSHV LANA DNA-binding inhibitor project, dose response (AID 504727); design: species or system Salmonidae
X-box-binding protein 1 = X-box-binding protein 1 (Homo sapiens, UniProt P17861); type: functional, Cricetulus griseus;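 note: confirmatory dose-response counter-screen serving a CHOP assay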
Streptococcus = assay: GAS UMAA2166 growth inhibition – luminescence, BacTiterGlo, counter-screen for streptokinase expression inhibitor project, dose response (AID 1915); type: functional, organism-based;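 note: potency for reduction of bacterial viability or growth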
Streptokinase A = molecular target: T5, Streptokinase A (Streptococcus pyogenes serotype M1, UniProt P10520); assay: viability-normalized secreted streptokinase activity reduction – plasminogen activation absorbance, OD405, dose response (AID 1914); type: functional, Streptococcus pyogenes M1 GAS;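 note: secreted streptokinase activity via plasminogen activation per viability signal from cell pellet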
T5 sequence (P10520 whole entry): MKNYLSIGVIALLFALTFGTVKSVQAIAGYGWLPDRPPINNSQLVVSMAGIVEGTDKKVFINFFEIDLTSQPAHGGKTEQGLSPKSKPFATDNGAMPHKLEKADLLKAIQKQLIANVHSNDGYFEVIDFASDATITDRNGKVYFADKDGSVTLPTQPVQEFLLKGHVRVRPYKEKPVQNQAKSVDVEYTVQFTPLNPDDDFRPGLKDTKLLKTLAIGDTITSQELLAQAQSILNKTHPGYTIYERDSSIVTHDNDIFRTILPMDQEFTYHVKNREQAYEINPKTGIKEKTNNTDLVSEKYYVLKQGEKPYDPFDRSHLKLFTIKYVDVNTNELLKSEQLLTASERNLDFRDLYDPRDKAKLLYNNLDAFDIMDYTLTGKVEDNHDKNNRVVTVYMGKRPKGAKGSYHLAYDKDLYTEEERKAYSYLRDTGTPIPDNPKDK

[12] = tested on: Streptococcus sp. 'group A'; assay: Streptococcus pyogenes SK(-)GAS viability under kanamycin – luminescence, BacTiterGlo, confirmation, counter-screen for streptokinase expression inhibitor project, dose response (AID 1900); type: functional, organism-based

Chain of Intestinal-type alkaline phosphatase (P09923 whole entry): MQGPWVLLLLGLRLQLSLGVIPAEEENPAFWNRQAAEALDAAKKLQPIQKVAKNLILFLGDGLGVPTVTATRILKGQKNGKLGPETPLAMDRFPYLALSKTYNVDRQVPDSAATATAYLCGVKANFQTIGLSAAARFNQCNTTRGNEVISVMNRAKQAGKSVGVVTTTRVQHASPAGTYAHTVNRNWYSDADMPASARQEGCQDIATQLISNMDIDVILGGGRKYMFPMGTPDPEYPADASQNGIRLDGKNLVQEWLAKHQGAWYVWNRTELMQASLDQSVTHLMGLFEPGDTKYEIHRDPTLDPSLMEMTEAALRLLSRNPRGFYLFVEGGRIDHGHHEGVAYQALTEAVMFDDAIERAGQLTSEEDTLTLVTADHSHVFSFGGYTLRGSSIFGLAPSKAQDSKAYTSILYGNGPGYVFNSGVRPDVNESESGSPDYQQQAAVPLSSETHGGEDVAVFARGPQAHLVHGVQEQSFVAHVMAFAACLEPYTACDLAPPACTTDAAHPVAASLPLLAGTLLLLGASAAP
Chain of Caspase-8 (Q14790 217-374 limits assumed): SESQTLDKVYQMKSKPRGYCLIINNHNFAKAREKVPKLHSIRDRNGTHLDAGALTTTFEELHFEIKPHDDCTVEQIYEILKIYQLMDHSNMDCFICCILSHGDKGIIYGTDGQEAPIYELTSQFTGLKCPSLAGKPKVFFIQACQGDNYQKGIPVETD
Chain of Caspase-8 (Q14790 385-479 limits assumed): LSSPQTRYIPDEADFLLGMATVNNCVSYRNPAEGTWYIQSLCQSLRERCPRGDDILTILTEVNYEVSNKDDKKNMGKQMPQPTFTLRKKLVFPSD
Chain of Scavenger receptor class B member 1 (Q61009 whole entry): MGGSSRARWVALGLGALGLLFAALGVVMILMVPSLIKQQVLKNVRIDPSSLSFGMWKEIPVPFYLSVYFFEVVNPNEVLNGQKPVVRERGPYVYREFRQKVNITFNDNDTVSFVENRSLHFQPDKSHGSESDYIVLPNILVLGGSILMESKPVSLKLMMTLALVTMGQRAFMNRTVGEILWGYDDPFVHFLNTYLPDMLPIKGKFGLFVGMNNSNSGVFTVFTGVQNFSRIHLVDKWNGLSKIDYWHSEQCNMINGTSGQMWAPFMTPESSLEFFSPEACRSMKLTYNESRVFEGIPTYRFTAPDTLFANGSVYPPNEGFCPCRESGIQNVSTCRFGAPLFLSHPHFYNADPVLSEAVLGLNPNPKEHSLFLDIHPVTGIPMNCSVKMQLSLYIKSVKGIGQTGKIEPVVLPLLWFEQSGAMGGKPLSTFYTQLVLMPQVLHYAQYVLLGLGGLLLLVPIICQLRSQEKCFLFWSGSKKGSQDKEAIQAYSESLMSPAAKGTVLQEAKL
Chain of Dual specificity protein phosphatase 3 (P51452 whole entry): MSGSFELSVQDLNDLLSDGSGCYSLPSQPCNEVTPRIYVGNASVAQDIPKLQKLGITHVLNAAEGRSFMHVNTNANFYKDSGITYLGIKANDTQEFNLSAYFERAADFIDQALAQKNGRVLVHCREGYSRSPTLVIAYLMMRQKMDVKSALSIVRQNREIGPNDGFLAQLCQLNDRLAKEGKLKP
Chain of Cystic fibrosis transmembrane conductance regulator/Golgi-associated PDZ and coiled-coil motif-containing protein (P13569 whole entry, other chains not shown): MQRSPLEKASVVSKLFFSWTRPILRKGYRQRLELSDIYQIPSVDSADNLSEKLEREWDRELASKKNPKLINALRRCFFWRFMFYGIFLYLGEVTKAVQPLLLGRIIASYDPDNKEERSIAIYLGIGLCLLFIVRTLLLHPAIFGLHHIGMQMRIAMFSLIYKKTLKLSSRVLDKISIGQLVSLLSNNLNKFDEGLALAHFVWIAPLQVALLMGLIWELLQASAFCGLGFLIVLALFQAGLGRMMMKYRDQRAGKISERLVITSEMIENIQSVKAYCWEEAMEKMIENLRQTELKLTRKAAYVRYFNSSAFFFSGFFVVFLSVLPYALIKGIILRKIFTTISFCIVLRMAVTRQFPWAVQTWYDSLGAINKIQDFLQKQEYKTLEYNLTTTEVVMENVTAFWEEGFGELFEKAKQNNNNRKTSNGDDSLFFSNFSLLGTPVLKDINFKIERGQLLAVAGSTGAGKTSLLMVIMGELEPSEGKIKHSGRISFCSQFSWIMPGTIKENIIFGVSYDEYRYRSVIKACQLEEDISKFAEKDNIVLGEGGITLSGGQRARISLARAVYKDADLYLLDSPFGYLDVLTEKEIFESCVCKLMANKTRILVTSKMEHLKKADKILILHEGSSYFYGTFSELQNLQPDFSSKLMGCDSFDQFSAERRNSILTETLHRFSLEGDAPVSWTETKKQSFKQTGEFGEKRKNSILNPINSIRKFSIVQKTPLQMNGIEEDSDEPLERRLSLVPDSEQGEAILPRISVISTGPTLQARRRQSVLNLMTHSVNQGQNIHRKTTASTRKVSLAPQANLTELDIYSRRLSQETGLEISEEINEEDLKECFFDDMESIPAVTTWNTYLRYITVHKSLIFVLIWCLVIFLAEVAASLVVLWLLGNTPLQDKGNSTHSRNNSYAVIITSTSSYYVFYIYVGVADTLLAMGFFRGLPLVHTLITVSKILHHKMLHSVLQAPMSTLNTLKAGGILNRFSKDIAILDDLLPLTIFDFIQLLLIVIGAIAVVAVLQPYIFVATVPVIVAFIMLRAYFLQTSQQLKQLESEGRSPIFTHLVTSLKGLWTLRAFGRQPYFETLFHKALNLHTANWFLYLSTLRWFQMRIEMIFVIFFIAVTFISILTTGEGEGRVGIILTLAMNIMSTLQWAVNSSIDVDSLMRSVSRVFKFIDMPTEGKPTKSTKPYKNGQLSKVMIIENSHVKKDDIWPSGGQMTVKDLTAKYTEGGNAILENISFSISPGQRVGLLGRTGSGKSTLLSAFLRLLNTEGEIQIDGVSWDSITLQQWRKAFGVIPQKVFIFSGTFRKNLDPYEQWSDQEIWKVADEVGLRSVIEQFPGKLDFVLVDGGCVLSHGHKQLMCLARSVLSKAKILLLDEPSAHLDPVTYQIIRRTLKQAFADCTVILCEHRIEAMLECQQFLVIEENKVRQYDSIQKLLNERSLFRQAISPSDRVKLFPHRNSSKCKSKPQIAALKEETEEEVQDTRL
Chain of Tumor necrosis factor (P01375 whole entry, the tested form may be a part): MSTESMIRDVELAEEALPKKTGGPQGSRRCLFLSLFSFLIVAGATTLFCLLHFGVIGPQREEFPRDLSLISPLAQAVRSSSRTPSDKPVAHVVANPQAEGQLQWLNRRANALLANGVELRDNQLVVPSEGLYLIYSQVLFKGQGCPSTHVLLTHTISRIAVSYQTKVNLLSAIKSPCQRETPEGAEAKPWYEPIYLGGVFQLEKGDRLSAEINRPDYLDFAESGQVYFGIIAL
Chain of ORF 73 (O40947 whole entry): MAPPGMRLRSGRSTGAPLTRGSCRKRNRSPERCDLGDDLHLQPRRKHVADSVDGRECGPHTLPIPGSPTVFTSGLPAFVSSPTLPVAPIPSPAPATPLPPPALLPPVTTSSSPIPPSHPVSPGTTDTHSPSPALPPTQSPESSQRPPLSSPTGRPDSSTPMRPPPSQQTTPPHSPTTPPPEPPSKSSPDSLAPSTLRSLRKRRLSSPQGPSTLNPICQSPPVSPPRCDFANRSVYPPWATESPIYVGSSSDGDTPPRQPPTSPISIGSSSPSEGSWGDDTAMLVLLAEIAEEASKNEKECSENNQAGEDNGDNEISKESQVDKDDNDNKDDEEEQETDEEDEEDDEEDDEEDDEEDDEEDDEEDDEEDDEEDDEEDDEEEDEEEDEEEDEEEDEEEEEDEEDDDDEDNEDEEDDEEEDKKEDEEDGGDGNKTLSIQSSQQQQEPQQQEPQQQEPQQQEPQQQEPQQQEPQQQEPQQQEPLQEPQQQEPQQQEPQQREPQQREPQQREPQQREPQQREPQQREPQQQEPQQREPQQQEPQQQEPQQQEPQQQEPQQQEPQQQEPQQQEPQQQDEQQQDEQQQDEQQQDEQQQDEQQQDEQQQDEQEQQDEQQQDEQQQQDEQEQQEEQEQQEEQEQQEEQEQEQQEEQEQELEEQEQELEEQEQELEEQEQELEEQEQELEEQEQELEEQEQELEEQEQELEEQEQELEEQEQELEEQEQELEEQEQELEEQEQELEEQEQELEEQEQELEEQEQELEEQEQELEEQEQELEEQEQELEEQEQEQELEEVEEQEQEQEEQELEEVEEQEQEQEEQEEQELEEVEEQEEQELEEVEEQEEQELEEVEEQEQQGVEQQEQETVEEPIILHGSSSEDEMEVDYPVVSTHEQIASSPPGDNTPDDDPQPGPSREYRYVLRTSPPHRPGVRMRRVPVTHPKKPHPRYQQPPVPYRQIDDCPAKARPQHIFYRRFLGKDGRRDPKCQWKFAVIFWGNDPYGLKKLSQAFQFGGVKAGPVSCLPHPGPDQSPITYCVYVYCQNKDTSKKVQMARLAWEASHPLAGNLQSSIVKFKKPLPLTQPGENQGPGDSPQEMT
Chain of Induced myeloid leukemia cell differentiation protein Mcl-1 (Q07820 whole entry): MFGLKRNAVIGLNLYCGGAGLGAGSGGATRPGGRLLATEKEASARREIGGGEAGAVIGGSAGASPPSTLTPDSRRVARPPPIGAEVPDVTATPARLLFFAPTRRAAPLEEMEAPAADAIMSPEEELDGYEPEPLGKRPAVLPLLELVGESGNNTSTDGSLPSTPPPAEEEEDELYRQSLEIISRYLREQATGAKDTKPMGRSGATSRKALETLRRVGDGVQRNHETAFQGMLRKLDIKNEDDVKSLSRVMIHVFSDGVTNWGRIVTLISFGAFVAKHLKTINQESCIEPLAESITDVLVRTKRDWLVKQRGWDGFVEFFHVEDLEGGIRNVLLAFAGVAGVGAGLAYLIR
Chain of Caspase-6 (P55212 24-179 limits assumed): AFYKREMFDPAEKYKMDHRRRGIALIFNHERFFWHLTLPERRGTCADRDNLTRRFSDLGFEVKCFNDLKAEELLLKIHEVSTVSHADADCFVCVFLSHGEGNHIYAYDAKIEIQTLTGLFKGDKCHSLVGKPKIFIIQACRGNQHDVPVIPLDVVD
Chain of Caspase-6 (P55212 194-293 limits assumed): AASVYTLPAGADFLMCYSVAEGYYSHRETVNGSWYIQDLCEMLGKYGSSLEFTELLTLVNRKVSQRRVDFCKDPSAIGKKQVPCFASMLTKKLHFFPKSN

CN1CCc2ccc(NC(=O)c3ccc(C(F)(F)F)cc3)cc2C1
AC50 [1]: 90.7 µM (active)

O=C(NC(=S)Nc1sc2c(c1C(=O)O)CCCC2)c1ccccc1
IC50 (Tumor necrosis factor): 15.5 µM (active)
IC50 [2]: 17.3 µM (active)
IC50 (HEK293): > 20 µM (inactive)
IC50 [3]: 14.4 µM (active)

O=c1oc2ccccc2c2oc3cc(O)c(O)cc3c12
IC50 [4]: 6.69 µM (active)
AC50 (Caspase-8): > 70 µM (inactive)
AC50 (Caspase-6): 4.48 µM (active)
IC50 [5]: 3.52 µM (active)
IC50 (Albumin): > 94.2 µM (inactive)
AC50 (Caspase-3): 22.1 µM (active)
AC50 (Caspase-7): 59.8 µM (active)
IC50 (Large T antigen): 6.52 µM (active)

CCOc1ccc2c(c1)sc(N)[n+]2Cc1cc(C)cc2cccnc12
IC50 [6]: > 80 µM (inactive)
IC50 (J774.A1): 0.229 µM (active)

Cc1csc(NC(=O)CCCC(=O)O)c1-c1nc2ccccc2s1
IC50 [7]: 2.67 µM (active)
IC50 [8]: 3.28 µM (active)
CC50 [9]: > 40 µM (active)
IC50 (Aminopeptidase N): 11.2 µM (active)
IC50 (Leucine aminopeptidase): 35.4 µM (active)

c1ccc(C(Nc2cccnc2)c2ccccc2)cc1
AC50 [10]: 33 µM (active)

CN1C(=O)/C(=N\C2CCCCC2)c2c3ccccc3c(O)c3cccc1c23
AC50 (ORF 73): 77.3 µM (active)
AC50 [11]: 8.48 µM (active)
AC50 (Salmon testes DNA): 101 µM (active)

Cc1cccc(NCC(=O)N/N=C\c2cccc(Oc3ccccc3)c2)c1
Absolute IC50 (XBP1) (X-box-binding protein 1): 10 µM
EC50 (Streptococcus): > 150 µM (not active)
EC50 (Streptokinase A): > 150 µM (not active)
EC50 [12]: > 150 µM (not active)
